Data on 6 compounds can be found in ChEMBL document CHEMBL4715717, “Analysis of the aplyronine A-induced protein-protein interaction between actin and tubulin by surface plasmon resonance” (Bioorg Med Chem, 2016).

For assay [1], the species on record is Homo sapiens. The assay can be described thus: Inhibition of aplyronine A-actin complex-tubulin (unknown origin) protein-protein interaction at 1 equivalent by SPR analysis. Background: In SPR one partner is held on a chip, and binding of the other changes the refractive index at the surface.
Assay [2] deals with Actin, alpha skeletal muscle (Oryctolagus cuniculus, UniProt P68135). Kind of assay: Induction of rabbit skeletal muscle actin depolymerization measured after 120 mins by fluorescence assay.
Assay [3] concerns HeLa S3. Kind of assay: Cytotoxicity against human HeLa S3 cells assessed as reduction in cell viability measured after 96 hrs by MTT assay. The format is functional, cell-based. To be noted: HeLa S3, 96 h.
A short description of assay [4]: Binding affinity to streptavidin immobilized actin (unknown origin) assessed as off rate constant by SPR analysis. Details: species or system Homo sapiens.
For assay [5], the species on record is Homo sapiens. Kind of assay: Binding affinity to streptavidin immobilized actin (unknown origin) assessed as on rate constant by SPR analysis.
The nature of assay [6]: Binding affinity to streptavidin immobilized actin (unknown origin) assessed as dissociation constant by SPR analysis. Details: species or system Homo sapiens.
The species named for assay [7] is Homo sapiens. Kind of assay: Induction of aplyronine A-actin complex-tubulin (unknown origin) protein-protein interaction assessed as actin-aplyronine A-tubulin ternary complex formation by SPR analysis.
The species entered for assay [8] is Homo sapiens. Kind of assay: Induction of aplyronine A-actin complex-tubulin (unknown origin) protein-protein interaction assessed as association of actin-aplyronine A-tubulin complex by SPR analysis.
For assay [9], the species on record is Homo sapiens. The assay can be described thus: Binding affinity to actin (unknown origin) assessed as on rate constant for actin-compound-tubulin heterodimer complex.
The species named for assay [10] is Homo sapiens. Kind of assay: Binding affinity to actin (unknown origin) assessed as dissociation constant for actin-compound-tubulin heterodimer complex at 8 degreeC.
The species entered for assay [11] is Homo sapiens. The assay can be described thus: Binding affinity to actin (unknown origin) assessed as 1:1:1 ratio of actin-compound-tubulin heterodimer complex formation by measuring peak time in presence of 9:1 ratio of native/biotinylated tubulin by gel permeation HPLC analysis.
Assay [12] in a line: Binding affinity to actin (unknown origin) assessed as dissociation constant for actin-compound-tubulin heterodimer complex at 25 degreeC. On the set-up: species or system Homo sapiens.
Assay [13] is filed under the species Homo sapiens. The assay can be described thus: Binding affinity to actin (unknown origin) assessed as 1:1:1 ratio of actin-compound-tubulin heterodimer complex formation by measuring molecular weight in presence of 9:1 ratio of native/biotinylated tubulin by gel permeation HPLC analysis.
For assay [14], the species on record is Homo sapiens. The assay can be described thus: Binding affinity to actin (unknown origin) assessed as thermal stability of actin-compound-immobilized tubulin heterodimer complex.
The species named for assay [15] is Homo sapiens. The assay can be described thus: Binding affinity to actin (unknown origin) assessed as thermal stability of actin-compound-tubulin heterodimer complex at 25 degreeC.
The species entered for assay [16] is Homo sapiens. Kind of assay: Induction of immobilized actin-tubulin (unknown origin) protein-protein interaction by SPR analysis.
The species entered for assay [17] is Homo sapiens. Kind of assay: Induction of microtubule (unknown origin) depolymerization pretreated with paclitaxel followed by compound treatment measured after 1 hr in presence of native and biotinylated tubulin and actin by ultracentrifugation.
Assay [18] can be described thus: Binding affinity to actin (unknown origin) assessed as off rate constant for actin-compound-tubulin heterodimer complex. On the set-up: species or system Homo sapiens.

Activity calls are given as the source filed them. The rule behind the calls is not given here.

As a reminder, the inhibition is the percentage by which the read-out fell short of the control. One may read the Kd as the constant that tells how readily two partners part at equilibrium. By IC50 is commonly meant the concentration that gives 50% inhibition.

Take `COC[C@@H](OC)C(=O)O[C@H](CC[C@H](C)[C@H](C[C@@H]1OC(=O)C[C@@H](O)C/C=C/C(=O)[C@H](C)[C@H](OC)c2coc(n2)-c2coc(n2)-c2coc(n2)/C=C/C[C@H](OC)[C@H]1C)OC)[C@H](C)[C@H](OC(C)=O)[C@H](C)/C=C/N(C)C=O`: the inhibition in [1] is 100%. The compound further had a Kd in [2] of 13 nM.

As to `COCC(C(=O)O[C@@H]1C/C=C/C=C/C(=O)O[C@H]([C@@H](C)[C@@H](O)[C@@H](C)CC[C@@H](OC(=O)C(C)N(C)C)[C@H](C)[C@H](OC(C)=O)[C@H](C)C/C=N/NC(=O)CCOCCOCCOCCOCCNC(=O)CCCC[C@@H]2SC[C@@H]3NC(=O)N[C@@H]32)C/C=C/[C@H](OC)C[C@H](C)C/C=C(\C)[C@@H](OC)CC[C@@H](C)[C@@H](O)[C@@H]1C)N(C)C` (some centres not stated), the concentration for half-maximal inhibition (IC50) in assay [3] was 0.096 nM. Moreover, the Kd is 1.83 10^-2/s in [4] and 4020 nM in assay [6]. For the same compound, the Ka in assay [5] is 4.54 10^3/M/s.

`CO[C@H]1CC[C@@H](C)[C@@H](O)[C@H](C)[C@H](O)C/C=C/C=C/C(=O)O[C@H]([C@@H](C)[C@@H](O)[C@@H](C)CC[C@@H](OC(=O)C(C)N(C)C)[C@H](C)[C@H](OC(C)=O)[C@H](C)C/C=N/NC(=O)CCOCCOCCOCCOCCNC(=O)CCCC[C@@H]2SC[C@@H]3NC(=O)N[C@@H]32)C/C=C/[C@H](OC)C[C@H](C)C/C=C/1C` (some centres not stated): in assay [3], the 50% inhibitory concentration (IC50) came to 700 nM. Also, the Kd was 1.51 10^-2/s in assay [4] and 18000 nM in [6]. In addition, the Ka in [5] was 8.38 10^2/M/s.

For `C/C1=C/C(=O)O[C@@H]2C[C@@H](CC[C@H](C)/C=C\C=C\CC1)O[C@@](O)([C@@H]1CSC(=O)N1)C2`, the outcome in [7] and in assay [8] was Active.

With `COCC(C(=O)O[C@@H]1C/C=C/C=C/C(=O)O[C@H]([C@@H](C)[C@@H](O)[C@@H](C)CC[C@@H](OC(=O)C(C)N(C)C)[C@H](C)[C@H](OC(C)=O)[C@H](C)/C=C/N(C)C=O)C/C=C/[C@H](OC)C[C@H](C)C/C=C(\C)[C@@H](OC)CC[C@@H](C)[C@@H](O)[C@@H]1C)N(C)C` (some centres not stated) [APLYRONINE A], the Ka in assay [9] was 4.78 10^4/M/s; in assay [10], 3 10^6/M. Besides, the inhibition in assay [1] was found to be 100%. Further, in [11], the TIME was determined as 0.265 h. Besides, the figures for the Kd in assay [2], in assay [12] and in assay [18] were 100 nM, 1840 nM and 8.82 10^-2/s, respectively. For the same compound, the half-inhibitory concentration (IC50) in assay [3] amounted to 0.01 nM. Also, the Activity in [13] is 145 kDa. In addition, the result in assay [14], in assay [15] and in [16] was inactive. In assay [17], the outcome was Active.

`CO[C@H]1CC[C@@H](C)[C@@H](O)[C@H](C)[C@H](O)C/C=C/C=C/C(=O)O[C@H]([C@@H](C)[C@@H](O)[C@@H](C)CC[C@@H](OC(=O)C(C)N(C)C)[C@H](C)[C@H](OC(C)=O)[C@H](C)/C=C/N(C)C=O)C/C=C/[C@H](OC)C[C@H](C)C/C=C/1C` (some centres not stated) [APLYRONINE C]: in [1], the inhibition came out at 100%. The IC50 in assay [3] turned out to be 17 nM.
